# Measured values: ChEMBL document CHEMBL4699438, “Toward the discovery and development of effective modulators of α-synuclein amyloid aggregation” (Eur J Med Chem, 2019)
# Columns and labels:
# Alpha-synuclein [1] = target: T1, Alpha-synuclein (Homo sapiens, UniProt P37840); test: Inhibition of wild type alpha-synuclein aggregation (unknown origin) expressed in Escherichia coli BL21 cells incubated for 30 days by thioflavin T based fluorescence assay
# Alpha-synuclein [2] = target: T1, Alpha-synuclein; test: Inhibition of alpha-synuclein aggregation (unknown origin) expressed in Escherichia coli BL21(DE3) cells; conditions: concentration not given here
# Alpha-synuclein [3] = target: T1, Alpha-synuclein; test: Inhibition of alpha-synuclein aggregation (unknown origin) expressed in Escherichia coli BL21(DE3) cells assessed as HFIP-induced protein aggregation measured after 16 to 18 hrs by thioflavin T based fluorescence assay relative to control; design: scale not given: the % may be the effect or the level left; conditions: time hrs 16-18
# Alpha-synuclein [4] = target: T1, Alpha-synuclein; test: Inhibition of human alpha-synuclein aggregation expressed in Escherichia coli BL21(DE3) cells assessed as percent of un-inhibition measured at 16 hrs by thioflavin T based fluorescence assay relative to control; design: concentration or dose not given beside the values
# Alpha-synuclein [5] = target: T1, Alpha-synuclein; test: Inhibition of alpha-synuclein fibril formation (unknown origin) incubated for 6 days by thioflavin S based fluorescence assay
# Alpha-synuclein [6] = target: T1, Alpha-synuclein; test: Binding affinity to alpha-synuclein (unknown origin) expressed in Escherichia coli BL21(DE3) by circular dichroism analysis
# [7] = Binding affinity to alpha-synuclein A69C/F94W double-mutant (unknown origin) expressed in Escherichia coli BL21(DE3) cells assessed as binding constant for binding two molecule at 10 uM incubated for 10 mins by fluorescence analysis; design: species or system Homo sapiens
# [8] = Binding affinity to alpha-synuclein A69C/F94W double-mutant (unknown origin) expressed in Escherichia coli BL21(DE3) cells assessed as binding constant for binding single molecule at 10 uM by absorption spectroscopy; design: species or system Homo sapiens
# Alpha-synuclein [9] = target: T1, Alpha-synuclein; test: Binding affinity to alpha-synuclein oligomer (unknown origin) expressed in Escherichia coli BL21(DE3) cells incubated for 30 mins by spectrofluorometric analysis
# Alpha-synuclein [10] = target: T1, Alpha-synuclein; test: Binding affinity to alpha-synuclein LMV 50 kDa (unknown origin) expressed in Escherichia coli BL21(DE3) cells incubated for 30 mins by spectrofluorometric analysis
# Alpha-synuclein [11] = target: T1, Alpha-synuclein; test: Binding affinity to alpha-synuclein preformed fibrils (unknown origin) expressed in Escherichia coli BL21(DE3) cells incubated for 30 mins by spectrofluorometric analysis
# Alpha-synuclein [12] = target: T1, Alpha-synuclein; test: Binding affinity to alpha-synuclein LMV 100 kDa (unknown origin) expressed in Escherichia coli BL21(DE3) cells incubated for 30 mins by spectrofluorometric analysis
# [13] = Binding affinity to alpha-synuclein A69C/F94W double-mutant (unknown origin) expressed in Escherichia coli BL21(DE3) cells assessed as binding constant for binding single molecule at 10 uM incubated for 10 mins by tryptophan fluorescence assay; design: species or system Homo sapiens
# Alpha-synuclein [14] = target: T1, Alpha-synuclein; test: Inhibition of alpha-synuclein fibril formation (unknown origin) incubated for 24 hrs to 7 days by thioflavin S based fluorescence assay
# [15] = Binding affinity to alpha-synuclein Y39W/A69C double-mutant (unknown origin) expressed in Escherichia coli BL21(DE3) cells assessed as binding constant for binding two molecule at 10 uM incubated for 10 mins by fluorescence analysis; design: species or system Homo sapiens
# [16] = Binding affinity to alpha-synuclein A69C/F94W double-mutant (unknown origin) expressed in Escherichia coli BL21(DE3) cells assessed as binding constant for binding two molecule at 10 uM by absorption spectroscopy; design: species or system Homo sapiens
# [17] = Binding affinity to alpha-synuclein Y39W/A69C double-mutant (unknown origin) expressed in Escherichia coli BL21(DE3) cells assessed as binding constant for binding single molecule at 10 uM incubated for 10 mins by fluorescence analysis; design: species or system Homo sapiens
# [18] = Binding affinity to alpha-synuclein A69C/F94W double-mutant (unknown origin) expressed in Escherichia coli BL21(DE3) cells assessed as binding constant for binding two molecule at 10 uM incubated for 10 mins by tryptophan fluorescence assay; design: species or system Homo sapiens
# [19] = Binding affinity to alpha-synuclein A69C/F94W double-mutant (unknown origin) expressed in Escherichia coli BL21(DE3) cells assessed as binding constant for binding single molecule at 10 uM incubated for 10 mins by fluorescence analysis; design: species or system Homo sapiens
# Alpha-synuclein [20] = target: T1, Alpha-synuclein; test: Inhibition of human alpha-synuclein filament formation expressed in Escherichia coli BL21(DE3) cells incubated for 72 hrs by thioflavin S based fluorescence assay
# [21] = Elimination half-life in human; format: ADME; conditions: read-out: beta t1/2 (converted)
# Alpha-synuclein [22] = target: T1, Alpha-synuclein; test: Inhibition of alpha-synuclein aggregation (unknown origin) incubated for 8 days by thioflavin S based fluorescence assay
# Alpha-synuclein [23] = target: T1, Alpha-synuclein; test: Inhibition of wild type human alpha-synuclein fibrillization expressed in Escherichia coli BL21(DE3)pLysS by thioflavin-T based fluorescence assay
# [24] = target: Amyloid-beta precursor protein (Homo sapiens, UniProt P05067); test: Inhibition of amyloid beta (1 to 40) (unknown origin) incubated for 24 hrs to 7 days by thioflavin S based fluorescence assay
# Sequence of Amyloid-beta precursor protein (P05067 whole entry): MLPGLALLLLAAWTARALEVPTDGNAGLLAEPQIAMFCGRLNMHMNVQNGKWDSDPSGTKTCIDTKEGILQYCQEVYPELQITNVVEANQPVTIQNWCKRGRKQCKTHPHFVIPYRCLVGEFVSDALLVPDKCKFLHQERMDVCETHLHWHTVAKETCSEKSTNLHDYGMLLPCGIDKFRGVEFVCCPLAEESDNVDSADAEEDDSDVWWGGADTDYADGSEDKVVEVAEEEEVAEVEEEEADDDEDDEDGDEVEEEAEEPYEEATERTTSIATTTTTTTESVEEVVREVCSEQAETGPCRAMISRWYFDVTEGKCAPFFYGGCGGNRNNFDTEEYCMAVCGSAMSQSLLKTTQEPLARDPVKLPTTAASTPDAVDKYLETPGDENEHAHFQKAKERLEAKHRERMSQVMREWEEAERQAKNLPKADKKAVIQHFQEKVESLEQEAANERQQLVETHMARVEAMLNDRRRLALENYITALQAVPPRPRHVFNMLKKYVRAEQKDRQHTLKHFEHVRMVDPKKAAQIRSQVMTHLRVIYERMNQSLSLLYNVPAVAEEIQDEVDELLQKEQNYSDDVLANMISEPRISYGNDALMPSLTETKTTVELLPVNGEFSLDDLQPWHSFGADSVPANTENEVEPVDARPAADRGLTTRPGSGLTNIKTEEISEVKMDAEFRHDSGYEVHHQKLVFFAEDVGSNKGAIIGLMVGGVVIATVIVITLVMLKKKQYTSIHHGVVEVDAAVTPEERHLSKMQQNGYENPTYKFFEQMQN
compound,measurement,setting,value
COc1cc(/C=C/c2cc(/C=C/c3ccc(O)c(OC)c3)n(-c3cccc([N+](=O)[O-])c3)n2)ccc1O,IC50,Alpha-synuclein [1],89.1 µM
CCC(=O)N[C@@H](Cc1c[nH]c2ccccc12)C(=O)N[C@H](C(=O)N1CCC[C@@H]1C(=O)NCC(=O)N[C@@H](CCCCN)C(=O)N[C@@H](Cc1c[nH]c2ccccc12)C(=O)N[C@H](C(=O)NCC(N)=O)[C@@H](C)O)[C@@H](C)CC,inhibition,Alpha-synuclein [2],50%
same,Activity,Alpha-synuclein [3],37%
same,Remaining aggregation (% of control),Alpha-synuclein [4],69%
CC[C@H](C)[C@H](NC(=O)[C@H](Cc1c[nH]c2ccccc12)NC(=O)[C@H](CCCCN)NC(=O)CN)C(=O)N[C@H](C(=O)N[C@H](C(=O)N[C@@H](CO)C(=O)N[C@H](C(=O)N1CCC[C@@H]1C(=O)N1CCC[C@H]1C(=O)N[C@@H](CCCCN)C(=O)N[C@@H](CCCCN)C(=O)N[C@@H](CC(C)C)C(=O)N[C@H](C(=O)N[C@H](C(=O)N[C@@H](Cc1c[nH]c2ccccc12)C(=O)N[C@H](C(=O)N1CCC[C@@H]1C(=O)O)[C@@H](C)CC)C(C)C)[C@@H](C)O)[C@@H](C)CC)C(C)C)[C@@H](C)O,inhibition,Alpha-synuclein [2],65%
same,Activity,Alpha-synuclein [3],34%
CC[C@H](C)[C@H](NC(=O)[C@H](Cc1c[nH]c2ccccc12)NC(=O)[C@H](CCCCN)NC(=O)CNC(=O)[C@H]1CCCN1C(=O)[C@@H](NC(=O)[C@H](Cc1c[nH]c2ccccc12)NC(=O)[C@@H](NC(=O)[C@@H](NC(=O)[C@H](CC(C)C)NC(=O)[C@H](CCCCN)NC(=O)[C@@H](N)CCCCN)[C@@H](C)O)C(C)C)[C@@H](C)CC)C(=O)N[C@H](C(=O)N[C@H](C(=O)N[C@@H](CO)C(=O)N[C@@H](C)C(=O)O)C(C)C)[C@@H](C)O,inhibition,Alpha-synuclein [2],75%
same,Activity,Alpha-synuclein [3],27%
same,Remaining aggregation (% of control),Alpha-synuclein [4],19%
CC[C@H](C)[C@H](NC(=O)[C@H](Cc1c[nH]c2ccccc12)NC(=O)[C@H](CCCCN)NC(=O)CNC(=O)[C@H]1CCCN1C(=O)[C@@H](NC(=O)[C@H](Cc1c[nH]c2ccccc12)NC(=O)[C@@H](NC(=O)[C@@H](NC(=O)[C@H](CC(C)C)NC(=O)[C@H](CS)NC(=O)[C@@H](N)CCCCN)[C@@H](C)O)C(C)C)[C@@H](C)CC)C(=O)N[C@H](C(=O)N[C@H](C(=O)N[C@@H](CS)C(=O)N[C@@H](C)C(=O)O)C(C)C)[C@@H](C)O,inhibition,Alpha-synuclein [2],50%
same,Activity,Alpha-synuclein [3],49%
CC(C)C[C@H]1C(=O)N2CCC[C@H]2[C@]2(O)O[C@](NC(=O)[C@@H]3C=C4c5cccc6[nH]c(Br)c(c56)C[C@H]4N(C)C3)(C(C)C)C(=O)N12 [BROMOCRIPTINE],IC50,Alpha-synuclein [5],24.7 µM
CO/N=C(\C(=O)N[C@@H]1C(=O)N2C(C(=O)O)=C(CSc3nc(=O)c(=O)[nH]n3C)CS[C@H]12)c1csc(N)n1 [CEFTRIAXONE],Kd,Alpha-synuclein [6],0.53 µM
COc1cc(/C=C/c2cc(/C=C/c3ccc(O)c(OC)c3)[nH]n2)ccc1O [CURCUMIN PYRAZOLE],IC50,Alpha-synuclein [1],127 µM
COc1cc(/C=C/C(=O)CC(=O)/C=C/c2ccc(O)c(OC)c2)ccc1O [CURCUMIN],Kd,[7],7.7 µM
same,Kd,[8],10 µM
same,Kd,Alpha-synuclein [9],2 µM
same,Kd,Alpha-synuclein [10],6.5 µM
same,Kd,Alpha-synuclein [11],0.5 µM
same,IC50,Alpha-synuclein [1],162 µM
same,Kd,Alpha-synuclein [12],5 µM
same,Kd,[13],58 µM
same,IC50,Alpha-synuclein [14],0.22 µM
same,Kd,[15],0.85 µM
same,Kd,[16],21 µM
same,Kd,[17],0.56 µM
same,Kd,[18],20 µM
same,Kd,[19],0.69 µM
NCCc1ccc(O)c(O)c1 [DOPAMINE],IC50,Alpha-synuclein [20],7.1 µM
same,IC50,Alpha-synuclein [5],0.53 µM
O=C(O[C@@H]1Cc2c(O)cc(O)cc2O[C@@H]1c1ccc(O)c(O)c1)c1cc(O)c(O)c(O)c1 [EPICATECHIN GALLATE],IC50,Alpha-synuclein [20],9.8 µM
same,half-life,[21],3.4 h
C[C@]12CC[C@@H]3c4ccc(O)cc4CC[C@H]3[C@@H]1CC[C@@H]2O [ESTRADIOL],IC50,Alpha-synuclein [22],60 µM
C[C@]12CC[C@@H]3c4ccc(O)cc4CC[C@H]3[C@@H]1C[C@@H](O)[C@@H]2O [ESTRIOL],IC50,Alpha-synuclein [22],20.1 µM
C[C@]12CC[C@@H]3c4ccc(O)cc4CC[C@H]3[C@@H]1CCC2=O [ESTRONE],IC50,Alpha-synuclein [22],93.1 µM
CC1=CC(=O)c2ccccc2C1=O [MENADIONE],IC50,Alpha-synuclein [23],15 µM
CC(C)=CCC/C(C)=C/CC/C(C)=C/CC/C(C)=C/CC1=C(C)C(=O)c2ccccc2C1=O [MENATETRENONE],IC50,Alpha-synuclein [23],15 µM
O=C1C=CC(=O)c2ccccc21 [NAPHTHOQUINONE],IC50,Alpha-synuclein [23],15 µM
CC(Cc1ccc(O)c(O)c1)C(C)Cc1ccc(O)c(O)c1 (stereo not given) [NORDIHYDROGUAIARETIC ACID],IC50,Alpha-synuclein [14],0.22 µM
same,IC50,Alpha-synuclein [22],0.21 µM
CCCN1C[C@H](CSC)C[C@@H]2c3cccc4[nH]cc(c34)C[C@H]21 [PERGOLIDE],IC50,Alpha-synuclein [5],7.9 µM
CC1=C(C/C=C(\C)CCC[C@H](C)CCC[C@H](C)CCCC(C)C)C(=O)c2ccccc2C1=O [PHYTONADIONE],IC50,Alpha-synuclein [23],15 µM
CC1=C(/C=C/C(C)=C/C=C/C(C)=C/C=O)C(C)(C)CCC1 [RETINAL],IC50,[24],0.18 µM
same,IC50,Alpha-synuclein [14],0.19 µM
CC1=C(/C=C/C(C)=C/C=C/C(C)=C/CO)C(C)(C)CCC1 [RETINOL],IC50,[24],0.18 µM
same,IC50,Alpha-synuclein [14],0.19 µM
C#CCN(C)[C@H](C)Cc1ccccc1 [SELEGILINE],IC50,Alpha-synuclein [5],0.27 µM
C[C@]12CC[C@H]3[C@@H](CCC4=CC(=O)CC[C@@]43C)[C@@H]1CC[C@@H]2O [TESTOSTERONE],IC50,Alpha-synuclein [22],96.8 µM
CC1=C(/C=C/C(C)=C/C=C/C(C)=C/C(=O)O)C(C)(C)CCC1 [TRETINOIN],IC50,[24],0.18 µM
same,IC50,Alpha-synuclein [14],3 µM
